Laboratory results as given in patent publication US7833795B2, “Assessment of cardiovascular risk using isoprostane biomarkers and COX-2 selective inhibitors” (The Trustees of the University of Pennsylvania, priority 2004, dated 2010).

Assays:
Type in all cases: in vivo, rat
[1] = system: Male Fisher 344 rats; experiment: Plasma free 8-iso-PGF2α by GC/NICI-MS; conditions: for Free 8-iso-PGF2a (by GC-MS): plasma
Protocol: (§1) Animals and treatment protocol: Male Fisher 344 rats (260-280 g) obtained from Charles River Laboratories (Raleigh, N.C.) were used in all experiments. The animals were housed three to a cage. Autoclaved hardwood bedding was used in solid-bottom polycarbonate cages with filter tops. Animal rooms were maintained at 20-25° C. with 35-70% relative humidity with alternating 12-hour light and dark cycles. The rats had free access to deionized, reverse-osmosis-treated water and received autoclaved NIH 31 rodent chow (Zeigler Bros., Gardners, Pa.) ad libitum. For all experiments, rats were fasted overnight and then administered intraperitoneal injections of carbon tetrachloride in canola oil. Control rats received an equal volume of canola oil. Fasting continued throughout the experiment. Rats were anesthetized with Nembutal (0.1 ml/100 g body weight) and 5 ml blood was removed from the dorsal aorta proximal to its bifurcation into the common iliac arteries.
Indomethacin pretreatment: The indomethacin regimen used has been previously shown to inhibit COX activity in rats by 90% (dose of 5 mg/kg s.c. 24 hours, 12 hours, and 2 hours prior to the injection of CCl4) (Jackson, 1989, J. Pharmacol. Exp. Ther. 250: 9-21). An additional booster dose was injected 8 hours after the last injection of CCl4 for the measurements performed 16 hours after treatment with CCl4.
(§2) Meclofenamic acid pretreatment: Meclofenamic acid was injected at a dose of 5 mg/kg i.p. 12 h and 2 h prior to the injection of CCl4.
(§3) Carbon tetrachloride (CCL4) treatment: Animals from each of the three dose groups (Control-canola oil, 120 mg/kg CCl4 i.p. and 1200 mg/kg CCl4 i.p.) were investigated at three time points (2, 7, and 16 hours after CCl4 injection). Indomethacin-pretreated rats were also investigated at the same three time points, and the meclofenamic acid-pretreated rats were investigated at one time point (7 hours). Each group consisted of five rats for each analysis, except the meclofenamic acid pretreatment group which consisted of six rats. Animal treatment, sample preparation, assessment of liver histology and serum enzyme activities are described elsewhere (Kadiiska et al., 2000, Free Radic. Biol. Med. 28: 838-845; Jackson, 1989, J. Pharmacol. Exp. Ther. 250: 9-21) and were carried out at NIEHS, Research Triangle Park, N.C.
(§4) Plasma sample preparation: Blood (5 ml) was drawn through single draw Vacutainer® needles (21 Gauge) into open Vacutainer® blood collection tubes containing heparin. The tubes were gently inverted 2-3 times for mixing and immediately placed on ice. Blood was centrifuged (2,000 rpm for 10 minutes at 4° C.) no more than 30 minutes after collection, and the plasma was collected, frozen on dry ice and stored at −70° C.
Two slightly different methods developed in two different laboratories were used to measure the effect of CCl4 on the plasma levels of free 8-iso-PGF2α, and the sum of free plus esterified 8-iso-PGF2α (also known as 8-epi-PGF2α and iPF2α-III and 15-F2t-IsoP). Free 8-iso-PGF2α concentrations in plasma were determined by gas chromatography/negative ion chemical ionization mass spectrometry (GC/NICI-MS) by the method of Morrow et al. (1999, Methods Enzymol. 300: 3-12). Briefly, [2H4] 8-iso-PGF2α internal standard was added to plasma and F2-isoprostanes were extracted with a C18 Sep-Pak® Cartridge (Waters Associates, Milford, Mass.). The extracted F2-isoprostanes were converted to pentafluorobenzyl ester and purified by TLC after which they were converted to a trimethylsilyl ether derivative and subsequently analyzed by GC-MS. The assay was developed and performed at Vanderbilt University, Nashville, Tenn.

[2] = system: Male Fisher 344 rats; experiment: Urinary free 8-iso-PGF2α by radioimmunoassay; conditions: both doses of CCl4, 7 h
Protocol: as §1, §2
as §3, with “N.C. […]” for “N.C.”
In Experimental Example 2, urine samples were also analyzed for free 8-iso-PGF2α, without any extraction, by radioimmunoassay (Basu, 1998, Prost. Leuk. Ess. Fatty Acids. 58: 319-325). […]

[3] = system: Male Fisher 344 rats; experiment: Plasma lipid hydroperoxides (LPO assay kit) after CCl4; conditions: for LOOH (by LPO assay kit): plasma
Protocol: as §1, §3, §4
Two assays were used to measure the effect of CCl4 on lipid hydroperoxides. A lipid hydroperoxide assay kit (Catalog No. 705002) from Cayman Chemical Company (Ann Arbor, Mich.) was used to measure hydroperoxides directly, utilizing the redox reaction with ferrous ion. Hydroperoxides were extracted into chloroform and reacted with ferrous ions to produce ferric ions. The resulting ferric ions were detected using thiocyanate ion as the chromogen. The hydroperoxide concentration was determined based on the absorption at 504 nm using a Beckman DU-7 spectrophotometer at room temperature. The experiments were performed at National Institute of Environmental Health Sciences (NIEHS), Research Triangle Park, N.C.

[4] = system: Male Fisher 344 rats; experiment: Plasma lipid hydroperoxides (iodometric assay) after CCl4
Protocol: as §1, §3, §4
The second assay of plasma lipid hydroperoxides used iodometric spectrophotometric determination. Concentrations of lipid hydroperoxides were measured according to a slightly modified procedure of Cramer et al. (1991, Anal. Biochem. 193: 204-211) where plasma was treated to enzymatically hydrolyze lipids, and nonesterified fatty acid peroxides were then extracted with ethyl acetate. Extracted lipids were reacted with potassium iodide in citric acid and methylene chloride, and the resulting triiodide ion (I3^−) was measured spectrophotometrically. All measurements were done at the United States Environmental Protection Agency (EPA), Research Triangle Park, N.C.

With ClC(Cl)(Cl)Cl [CCl4, Carbon tetrachloride] the “Free 8-iso-PGF2a (by GC-MS)” value ([1]; CCl4 120 mg/kg i.p., 2 h) was 0.48 ng/mL, the “Free 8-iso-PGF2a (by GC-MS)” value ([1]; CCl4 120 mg/kg i.p., 7 h) was 0.34 ng/mL and the “Free 8-iso-PGF2a (by GC-MS)” value ([1]; CCl4 120 mg/kg i.p., 16 h) was 0.27 ng/mL. For the same molecule, the “Free 8-iso-PGF2a (by GC-MS)” value ([1]; CCl4 1200 mg/kg i.p., 2 h) was 1.80 ng/mL, the “Free 8-iso-PGF2a (by GC-MS)” value ([1]; CCl4 1200 mg/kg i.p., 7 h) was 1.27 ng/mL and the “Free 8-iso-PGF2a (by GC-MS)” value ([1]; CCl4 1200 mg/kg i.p., 16 h) was 0.74 ng/mL. For the same molecule, the “increase of free plasma 8-iso-PGF2α” value ([1]; high dose CCl4, 2 hours) was 18 fold, the “increase of free plasma 8-iso-PGF2α” value ([1]; high dose CCl4, 7 hours) was 10 fold and the “increase of free plasma 8-iso-PGF2α” value ([1]; high dose CCl4, 16 hours) was 7 fold. For the same molecule, the “urinary free 8-iso-PGF2α (radioimmunoassay)” value [2] was “dose-dependent increase”, the “LOOH (by LPO assay kit)” value ([3]; CCl4 120 mg/kg i.p., 2 h) was 0.96 µM and the “LOOH (by LPO assay kit)” value ([3]; CCl4 120 mg/kg i.p., 7 h) was 1.20 µM. The “LOOH (by LPO assay kit)” value ([3]; CCl4 120 mg/kg i.p., 16 h) was 1.60 µM, the “LOOH (by LPO assay kit)” value ([3]; CCl4 1200 mg/kg i.p., 2 h) was 1.42 µM and the “LOOH (by LPO assay kit)” value ([3]; CCl4 1200 mg/kg i.p., 7 h) was 1.35 µM. The “LOOH (by LPO assay kit)” value ([3]; CCl4 1200 mg/kg i.p., 16 h) was 1.64 µM, the “increase of lipid hydroperoxides compared to controls (kit)” value ([3]; high dose CCl4, 2 hour) was 3 fold and the “LOOH (iodometric assay)” value ([4]; CCl4 120 mg/kg i.p., 2 h) was 0.30 µM. The “LOOH (iodometric assay)” value ([4]; CCl4 120 mg/kg i.p., 7 h) was 0.30 µM, the “LOOH (iodometric assay)” value ([4]; CCl4 120 mg/kg i.p., 16 h) was 0.56 µM and the “LOOH (iodometric assay)” value ([4]; CCl4 1200 mg/kg i.p., 2 h) was 1.42 µM. For the same molecule, the “LOOH (iodometric assay)” value ([4]; CCl4 1200 mg/kg i.p., 7 h) was 0.40 µM and the “LOOH (iodometric assay)” value ([4]; CCl4 1200 mg/kg i.p., 16 h) was 0.39 µM.
